# Earlier results in patent US20190388365A1, “C[…] NEURO-DEGENERATIVE DISEASES AND SIDE-EFFECTS ASSOCIATED WITH COGNITION EFFECTING PHARMACEUTICALS” (priority 2015, published 2019).
# System: patients receiving morphine
# Conditions: limited clinical trials
smiles,measurement,value
"NC(=O)C[S+]([O-])C(c1ccccc1)c1ccccc1 (racemic) [Modafinil, benzhydrylsulfinylacetamide]",effect on sleepiness and confusion associated with morphine delivery,reverses the sleepiness and even confusion associated with morphine delivery
